Calls of active or inactive are those of the source.
Tests used:
Aminopeptidase N = biological target: T1, Aminopeptidase N (Plasmodium falciparum FcB1/Columbia, UniProt O96935); assay: malaria alanyl aminopeptidase activity blockers – biochemical, fluorogenic H-Leu-NHMec substrate, 1536-well (AID 1445); set-up: species or system Plasmodium falciparum 3D7, 3D7
T1 sequence (O96935 whole entry): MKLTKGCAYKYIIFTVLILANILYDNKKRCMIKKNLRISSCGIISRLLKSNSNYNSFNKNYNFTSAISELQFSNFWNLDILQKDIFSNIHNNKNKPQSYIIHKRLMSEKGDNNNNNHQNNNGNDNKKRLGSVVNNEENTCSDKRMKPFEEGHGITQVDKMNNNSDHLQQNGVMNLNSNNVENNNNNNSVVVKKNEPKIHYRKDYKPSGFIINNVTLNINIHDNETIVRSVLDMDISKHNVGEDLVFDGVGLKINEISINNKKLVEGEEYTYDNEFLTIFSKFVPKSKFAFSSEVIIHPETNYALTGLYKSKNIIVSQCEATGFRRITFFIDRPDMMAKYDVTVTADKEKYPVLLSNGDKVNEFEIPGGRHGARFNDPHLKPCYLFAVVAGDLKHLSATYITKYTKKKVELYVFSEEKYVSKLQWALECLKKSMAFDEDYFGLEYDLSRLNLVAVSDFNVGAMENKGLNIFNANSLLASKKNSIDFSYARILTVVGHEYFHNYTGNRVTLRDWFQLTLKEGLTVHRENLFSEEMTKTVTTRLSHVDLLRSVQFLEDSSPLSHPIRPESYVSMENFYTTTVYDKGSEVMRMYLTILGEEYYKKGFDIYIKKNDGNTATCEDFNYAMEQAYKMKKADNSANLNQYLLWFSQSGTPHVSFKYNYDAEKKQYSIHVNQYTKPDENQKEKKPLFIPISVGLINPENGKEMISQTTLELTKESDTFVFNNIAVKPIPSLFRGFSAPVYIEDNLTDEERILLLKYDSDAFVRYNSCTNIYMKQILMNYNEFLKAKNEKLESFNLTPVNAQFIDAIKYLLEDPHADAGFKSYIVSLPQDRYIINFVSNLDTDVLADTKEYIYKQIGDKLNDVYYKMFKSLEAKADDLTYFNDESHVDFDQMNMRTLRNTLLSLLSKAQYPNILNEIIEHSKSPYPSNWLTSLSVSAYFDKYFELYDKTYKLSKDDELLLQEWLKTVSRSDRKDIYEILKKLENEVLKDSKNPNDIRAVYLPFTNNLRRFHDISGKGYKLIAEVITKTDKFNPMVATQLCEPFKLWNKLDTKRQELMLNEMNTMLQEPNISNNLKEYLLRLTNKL

[1] = biological target: T2, Tyrosyl-DNA phosphodiesterase 2 (Homo sapiens, UniProt O95551); assay: potency against TDP2 phosphodiesterase activity – biochemical, epi absorbance, IC50, dose response (AID 743297)
T2 sequence (O95551 whole entry): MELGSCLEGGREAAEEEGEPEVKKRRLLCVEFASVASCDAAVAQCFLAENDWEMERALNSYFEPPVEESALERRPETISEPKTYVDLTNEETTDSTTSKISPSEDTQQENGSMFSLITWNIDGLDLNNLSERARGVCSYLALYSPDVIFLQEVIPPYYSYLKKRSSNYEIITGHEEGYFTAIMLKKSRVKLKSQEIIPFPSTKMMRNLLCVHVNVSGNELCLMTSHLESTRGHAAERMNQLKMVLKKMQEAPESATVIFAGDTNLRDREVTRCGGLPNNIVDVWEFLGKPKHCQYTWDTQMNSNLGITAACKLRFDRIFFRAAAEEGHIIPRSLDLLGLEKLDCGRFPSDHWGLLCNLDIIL

[2] = biological target: T3, Oxysterols receptor LXR-beta (Homo sapiens, UniProt P55055); type: functional, cell-based;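 note: agonist activity at LXR measured by a cell-based luminescence readout across a dose range, run as a counterscreen for daf-12 agonists; HEK293 cells with Gal4-LXR fusion and GAL4-driven luciferase reporter; potency for activation of Gal4-LXR reporter so compounds are agonists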
T3 sequence (P55055 whole entry): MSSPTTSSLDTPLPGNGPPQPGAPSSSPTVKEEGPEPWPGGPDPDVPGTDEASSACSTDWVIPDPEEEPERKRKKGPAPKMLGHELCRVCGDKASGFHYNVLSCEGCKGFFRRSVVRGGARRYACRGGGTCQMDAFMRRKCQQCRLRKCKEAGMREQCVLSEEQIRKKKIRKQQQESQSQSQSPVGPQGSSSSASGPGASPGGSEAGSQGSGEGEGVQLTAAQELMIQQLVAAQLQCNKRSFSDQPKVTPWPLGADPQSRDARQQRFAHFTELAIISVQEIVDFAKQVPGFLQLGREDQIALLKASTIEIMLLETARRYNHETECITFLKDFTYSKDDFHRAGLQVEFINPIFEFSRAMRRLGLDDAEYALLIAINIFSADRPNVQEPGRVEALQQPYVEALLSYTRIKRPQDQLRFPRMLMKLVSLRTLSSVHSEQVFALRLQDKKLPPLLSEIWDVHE

[3] = inhibition of ADAM10 peptide cleavage – biochemical, FRET peptide substrate, recombinant human ADAM10, selectivity assay for ADAM17 exosite inhibitor project, dose response (AID 743259);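 note: ADAM10 enzyme cleaving a FRET peptide substrate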
[4] = biological target: Disintegrin and metalloproteinase domain-containing protein 17 (Homo sapiens, UniProt P78536); assay: exosite inhibitors of ADAM17, dose response, biochemical (AID 743260)
Chain of Disintegrin and metalloproteinase domain-containing protein 17 (P78536 whole entry, the tested form may be a part): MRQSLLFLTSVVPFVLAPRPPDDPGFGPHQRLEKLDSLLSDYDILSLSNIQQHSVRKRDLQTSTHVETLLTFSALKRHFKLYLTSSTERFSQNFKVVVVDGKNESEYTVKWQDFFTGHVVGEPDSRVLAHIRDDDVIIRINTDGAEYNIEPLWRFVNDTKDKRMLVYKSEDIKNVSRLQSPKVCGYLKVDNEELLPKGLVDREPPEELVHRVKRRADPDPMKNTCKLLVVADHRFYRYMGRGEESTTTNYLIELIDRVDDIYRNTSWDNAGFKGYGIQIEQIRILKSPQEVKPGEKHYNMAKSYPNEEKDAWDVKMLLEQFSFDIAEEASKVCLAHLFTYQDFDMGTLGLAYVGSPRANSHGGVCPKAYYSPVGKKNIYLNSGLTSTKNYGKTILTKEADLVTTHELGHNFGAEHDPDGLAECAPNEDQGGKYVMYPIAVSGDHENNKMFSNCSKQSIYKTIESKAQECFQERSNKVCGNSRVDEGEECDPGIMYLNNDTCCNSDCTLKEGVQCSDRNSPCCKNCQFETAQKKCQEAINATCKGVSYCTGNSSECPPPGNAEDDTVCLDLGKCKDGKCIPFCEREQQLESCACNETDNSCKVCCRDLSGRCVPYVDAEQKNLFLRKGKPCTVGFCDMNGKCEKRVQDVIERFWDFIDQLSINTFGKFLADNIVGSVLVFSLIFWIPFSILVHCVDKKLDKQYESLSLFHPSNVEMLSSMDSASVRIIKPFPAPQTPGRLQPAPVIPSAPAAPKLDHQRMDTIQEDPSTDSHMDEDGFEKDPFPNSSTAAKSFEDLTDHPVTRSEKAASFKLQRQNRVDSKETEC

[5] = reduction of Shn3 3'UTR-driven luciferase in osteoblasts – cell-based, Clone20 osteoblasts, firefly luciferase, cherry-picked, dose response (AID 624132); type: functional;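 note: firefly luciferase luminescence from reporter carrying the Shn3 3'UTR in osteoblasts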
H9c2 = assay: cells; type: functional, cell-based; settings: Rattus norvegicus, H9c2, Myocardium
[6] = loss of viability in HepG2 cells – cell-based, CellTiter-Glo, cherry-picked, cytotoxicity control for Shn3 inhibitor project, dose response (AID 624134); type: functional
[7] = HIV-1 AD8 envelope cell-cell fusion blockers – cherry-pick, dose response (AID 652062); type: functional, cell-based;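 note: luciferase signal from cell-cell fusion driven by HIV-1 clade B AD8 Env; potency is for inhibitors of fusion seen as a drop in luminescence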
[8] = blockers of HIV-1 ZM109 envelope-driven cell-cell fusion – HeLa effector, CEM target cells, luciferase, cherry-pick, dose response (AID 652058); type: functional, cell-based;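 note: luciferase signal from HIV-1 Env mediated cell-cell fusion of effector and target cells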
[9] = viability loss in CEM21 cells – cell-based, CellTiter-Glo luminescence, cherry-picked, cytotoxicity control for viral fusion inhibitor project, dose response (AID 652042); type: functional;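 note: potency for signal decrease meaning cytotoxicity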
[10] = off-target signal loss in HeLa-CEM21 co-culture – HeLa F-luc CTL cells, cherry-picked, counter-screen for HIV-1 Env fusion inhibitor project, dose response (AID 652040); type: functional, cell-based;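 note: potency for signal decrease marking cytotoxic or nonspecific inhibition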
[11] = blockers of HIV-1 envelope-mediated cell-cell fusion – cherry-pick, dose response (AID 652057); type: functional, cell-based
[12] = biological target: Heat shock protein HSP 90-alpha (Homo sapiens, UniProt P07900); type: functional, organism-based
[13] = Luminescence Cell-Based Dose Retest to Confirm Inhibitors of Cancer Stem Cells. [Related pubchem assays (depositor defined):AID2717, AID2721]; type: functional; settings: Homo sapiens
[14] = toxicity toward HepG2 liver cells – cell-based, plate reader, cherry-pick, antagonist series, cytotoxicity control, dose response (AID 743416); type: functional
[15] = blockade of melanocortin 4 receptor signaling – cell-based, plate reader, cherry pick, counter-screen for LGR2 antagonist project, dose response (AID 743444); type: functional;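 note: transfected HEK 293 cells stimulated with alpha-MSH peptide; potency of inhibitors of the alpha-MSH evoked signal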
[16] = viability loss in HEK293 cells – cell-based, plate reader, cherry-picked samples, cytotoxicity control, dose response (AID 743446); type: functional
[17] = A549 cell cytotoxicity, dose response, cytotoxicity control, plate reader, cherry-pick, antagonist series (AID 743412); type: functional, cell-based
[18] = blockers of bursicon-stimulated LGR2 cAMP reporter – cell-based, HEK293, CRE-luciferase reporter, cherry pick, set 2, dose response (AID 743343); type: functional;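 note: transfected cells were stimulated with diluted bursicon conditioned medium after compound addition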
Cytochrome P450 2C9 = Cytochrome P450 2C9 (Homo sapiens, UniProt P11712)
Chain of Cytochrome P450 2C9 (P11712 whole entry): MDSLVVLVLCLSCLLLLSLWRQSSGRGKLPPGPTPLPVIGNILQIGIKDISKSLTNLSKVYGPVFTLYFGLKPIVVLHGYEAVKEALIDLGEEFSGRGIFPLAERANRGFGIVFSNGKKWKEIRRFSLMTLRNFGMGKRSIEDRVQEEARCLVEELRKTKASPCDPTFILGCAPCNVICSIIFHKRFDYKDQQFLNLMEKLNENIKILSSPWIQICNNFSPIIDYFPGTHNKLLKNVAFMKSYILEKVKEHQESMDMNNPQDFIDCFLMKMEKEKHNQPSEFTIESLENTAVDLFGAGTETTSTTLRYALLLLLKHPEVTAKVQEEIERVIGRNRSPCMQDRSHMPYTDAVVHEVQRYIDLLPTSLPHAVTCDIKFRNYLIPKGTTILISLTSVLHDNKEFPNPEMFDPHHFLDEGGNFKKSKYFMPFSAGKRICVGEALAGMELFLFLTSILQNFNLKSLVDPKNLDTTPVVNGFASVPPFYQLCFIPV

[19] = biological target: Cyclin-dependent kinase 5/CDK5 activator 1 (Homo sapiens, UniProt Q00535); assay: blockade of human CDK5 activity – biochemical, cherry-picked samples, set 2, dose response (AID 504545)
Chain of Cyclin-dependent kinase 5/CDK5 activator 1 (Q00535 whole entry): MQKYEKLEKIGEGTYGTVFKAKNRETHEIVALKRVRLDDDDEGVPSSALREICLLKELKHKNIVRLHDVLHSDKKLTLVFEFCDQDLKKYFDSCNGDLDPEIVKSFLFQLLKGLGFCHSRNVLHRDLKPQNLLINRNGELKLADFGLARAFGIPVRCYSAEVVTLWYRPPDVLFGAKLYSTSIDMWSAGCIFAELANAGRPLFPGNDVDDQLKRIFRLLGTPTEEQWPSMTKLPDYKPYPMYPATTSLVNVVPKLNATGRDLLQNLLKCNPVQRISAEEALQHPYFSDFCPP
Chain of Cyclin-dependent kinase 5/CDK5 activator 1 (Q15078 whole entry, further chain): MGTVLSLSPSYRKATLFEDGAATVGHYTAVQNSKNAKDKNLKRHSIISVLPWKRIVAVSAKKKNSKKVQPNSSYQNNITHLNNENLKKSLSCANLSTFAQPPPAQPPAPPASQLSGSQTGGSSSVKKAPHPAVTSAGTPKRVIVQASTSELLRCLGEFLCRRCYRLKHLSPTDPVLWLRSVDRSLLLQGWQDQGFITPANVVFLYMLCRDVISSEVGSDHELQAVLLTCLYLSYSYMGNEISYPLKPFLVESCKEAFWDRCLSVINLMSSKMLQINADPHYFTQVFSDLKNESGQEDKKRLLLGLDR

[20] = biological target: T4, DNA repair and recombination protein RAD54-like (Homo sapiens, UniProt Q92698); assay: RAD54 Holliday junction migration blockers – biochemical, fluorescence, cherry-picked samples, dose series, confirmation (AID 651657); type: functional
T4 sequence (Q92698 whole entry): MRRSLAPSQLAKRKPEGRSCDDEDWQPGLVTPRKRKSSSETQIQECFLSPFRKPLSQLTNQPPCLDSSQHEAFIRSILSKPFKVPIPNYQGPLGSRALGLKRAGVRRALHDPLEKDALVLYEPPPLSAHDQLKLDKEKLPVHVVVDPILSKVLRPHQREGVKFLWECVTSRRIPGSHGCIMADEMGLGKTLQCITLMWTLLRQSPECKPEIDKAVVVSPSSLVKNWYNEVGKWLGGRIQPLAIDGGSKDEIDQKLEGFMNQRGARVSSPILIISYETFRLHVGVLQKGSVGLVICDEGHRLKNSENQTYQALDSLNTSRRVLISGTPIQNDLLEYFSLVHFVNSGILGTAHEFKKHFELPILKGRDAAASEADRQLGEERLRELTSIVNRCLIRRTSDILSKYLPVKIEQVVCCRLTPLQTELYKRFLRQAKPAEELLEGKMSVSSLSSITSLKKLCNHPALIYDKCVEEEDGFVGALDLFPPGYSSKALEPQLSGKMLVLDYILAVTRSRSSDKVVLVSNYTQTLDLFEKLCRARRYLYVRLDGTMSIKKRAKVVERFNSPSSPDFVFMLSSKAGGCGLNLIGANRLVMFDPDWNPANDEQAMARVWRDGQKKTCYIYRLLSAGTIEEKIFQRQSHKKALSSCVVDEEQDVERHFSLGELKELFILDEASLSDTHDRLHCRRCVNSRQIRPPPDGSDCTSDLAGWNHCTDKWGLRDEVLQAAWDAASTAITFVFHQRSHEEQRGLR

[21] = biological target: T5, DNA repair protein RAD52 homolog (Homo sapiens, UniProt P43351); type: functional, biochemical
T5 sequence (P43351 whole entry): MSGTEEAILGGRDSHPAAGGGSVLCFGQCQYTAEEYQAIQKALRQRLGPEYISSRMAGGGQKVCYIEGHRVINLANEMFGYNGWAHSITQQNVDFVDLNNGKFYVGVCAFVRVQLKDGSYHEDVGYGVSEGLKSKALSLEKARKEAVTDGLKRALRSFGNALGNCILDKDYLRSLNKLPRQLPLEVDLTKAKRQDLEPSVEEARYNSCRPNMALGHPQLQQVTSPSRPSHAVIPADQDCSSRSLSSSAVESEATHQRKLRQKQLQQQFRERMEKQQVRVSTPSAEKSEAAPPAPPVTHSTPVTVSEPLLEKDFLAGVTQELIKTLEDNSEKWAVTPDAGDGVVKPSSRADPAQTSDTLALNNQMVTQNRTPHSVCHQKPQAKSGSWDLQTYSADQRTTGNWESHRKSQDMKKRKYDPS

[22] = OVCAR-3 cell viability loss – plate reader, dry powder samples, PAX8 inhibitor project, dose response (AID 743044); type: functional, cell-based
[23] = general cell-killing toxicity readout – plate reader, dry powder samples, cytotoxicity control for PAX8 inhibitor project, dose response (AID 743021); type: functional, cell-based
Paired box protein Pax-8 = Paired box protein Pax-8 (Homo sapiens, UniProt Q06710); assay: PAX8 transcriptional activity inhibition in RMG-I – RMG-I cells, luciferase, cherry-pick, dose response (AID 687027); type: functional, cell-based;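 note: luciferase reporter driven by Pax8 target thyroperoxidase promoter measured by SteadyGlo luminescence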
Chain of Paired box protein Pax-8 (Q06710 whole entry): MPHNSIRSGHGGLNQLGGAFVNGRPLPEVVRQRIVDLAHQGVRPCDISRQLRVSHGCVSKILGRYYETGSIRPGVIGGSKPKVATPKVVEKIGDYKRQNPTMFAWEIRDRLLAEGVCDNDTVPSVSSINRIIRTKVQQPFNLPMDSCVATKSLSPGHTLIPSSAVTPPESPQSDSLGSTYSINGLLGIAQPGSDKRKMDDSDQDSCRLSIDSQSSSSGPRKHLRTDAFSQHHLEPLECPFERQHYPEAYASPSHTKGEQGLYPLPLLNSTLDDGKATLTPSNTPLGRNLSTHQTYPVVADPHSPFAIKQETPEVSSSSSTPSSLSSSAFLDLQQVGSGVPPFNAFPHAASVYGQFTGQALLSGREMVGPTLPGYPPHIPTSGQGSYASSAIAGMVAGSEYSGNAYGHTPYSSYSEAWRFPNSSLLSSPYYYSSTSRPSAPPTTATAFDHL

[24] = OVCAR8 cell viability loss – plate reader, dry powder samples, PAX8 project, dose response (AID 743197); type: functional, cell-based; settings: OVCAR-8

## CCCCn1c(NS(=O)(=O)c2ccccc2)c(C(=O)OCC)c2nc3ccccc3nc21
Aminopeptidase N
  IC50: 74.4 µM (active)
[1]
  IC50: > 128 µM (inactive)

## Cc1nc2sc(-c3ccccc3)nn2c(=O)c1Br
[2]
  EC50: > 67.5 µM (inactive)

## COc1ccc(OC)c(NC(=O)COC(=O)c2c3c(nc4ccccc24)CCCC3)c1
[3]
  IC50: > 69.5 µM (inactive)
[4]
  IC50: > 69.5 µM (inactive)
[5]
  AC50: 8.67 µM (active)
H9c2
  IC50: > 79 µM (inactive)
[6]
  AC50: > 70 µM (inactive)

## CC(C)Oc1cc(O)c2c(=O)c(-c3ccc(O)cc3)coc2c1
[2]
  EC50: > 67.6 µM (inactive)

## Cc1cc(OCC(O)CNC(C)c2ccccc2)ccc1C(C)C (stereo not drawn)
[7]
  AC50: 7.78 µM (active)
[8]
  AC50: 1.85 µM (active)
[9]
  AC50: 13.3 µM (active)
[10]
  AC50: 3.99 µM (active)
[11]
  AC50: 2.75 µM (active)

## Cc1cc(N=Nc2ccc3ccccc3c2)ccc1O
[2]
  EC50: > 67.6 µM (inactive)
[12]
  AC50: 3.92 µM (active)
[13]
  AC50: 3.23 µM (active)

## COc1ccc(CC(=O)Nc2cccc(-c3nnc(-c4ccc(C)cc4)o3)c2)cc1OC
[14]
  AC50: 30.3 µM (active)
[15]
  AC50: 8.14 µM (active)
[16]
  AC50: 10.7 µM (active)
[17]
  AC50: 33.4 µM (active)
[18]
  AC50: 7.65 µM (active)

## CC1(C)Cc2c(ccc3ccccc23)C(=O)N1
Cytochrome P450 2C9
  AC50: inconclusive
[7]
  AC50: 2.95 µM (active)
[8]
  AC50: 8.55 µM (active)
[9]
  AC50: 47.6 µM (active)
[10]
  AC50: 14.1 µM (active)
[19]
  AC50: 22.4 µM (active)
[11]
  AC50: 4.84 µM (active)

## CC(=O)Nc1cc(-c2ccc(N3CCN(C)CC3)cc2)cn2c(-c3ccc(S(C)(=O)=O)cc3)cnc12
[20]
  AC50: 20.3 µM (active)
[21]
  AC50: 4.37 µM (active)

## COc1ccc(S(=O)(=O)N(C)C[C@H]2OCCCC[C@H](C)Oc3ccc(NS(=O)(=O)c4ccc(F)cc4)cc3C(=O)N([C@@H](C)CO)C[C@@H]2C)cc1
[22]
  AC50: 21.5 µM (active)
[23]
  AC50: 56.8 µM (active)
Paired box protein Pax-8
  AC50: 4.67 µM (active)
[24]
  AC50: 46.1 µM (active)

## Cc1ccc(S(=O)(=O)Nc2ccc3c(c2)C(=O)N([C@H](C)CO)C[C@H](C)[C@@H](CN(C)S(=O)(=O)c2ccc(Cl)cc2)OCCCC[C@H](C)O3)cc1
[22]
  AC50: 14.4 µM (active)
Paired box protein Pax-8
  AC50: 3.2 µM (active)
[24]
  AC50: > 70 µM (inactive)
